Test results reported in the NIST ThermoML archive (doi:10.1021/je8001688).
Numbers after ± are expanded uncertainties.

Settings: 298.15 K; 101.33 kPa; Liquid; Vibrating tube method

mass density	Structure (SMILES)
1382.4 ± 0.6 kg/m3	OCC(F)(F)F [2,2,2-trifluoroethanol]
774 ± 0.5 kg/m3	C1CCCCC1 [cyclohexane]
680 ± 0.5 kg/m3	CCCCCCC [heptane]
781.4 ± 0.5 kg/m3	CC(C)O [propan-2-ol]

Structure (SMILES)	mass density
CO [methanol]	787 ± 0.5 kg/m3
